{"source": "paper PMC9324262", "about": "“Selective CDK9 Inhibition by Natural Compound Toyocamycin in Cancer Cells” (Cancers, 2022)", "key": {"CDK7/Cyclin H/MAT1": {"molecular_target": "T1, CDK7/Cyclin H/MAT1 (Homo sapiens, UniProt P50613)", "T1 construct": "purchased BPS Bioscience", "T1 sequence (P50613 whole entry)": "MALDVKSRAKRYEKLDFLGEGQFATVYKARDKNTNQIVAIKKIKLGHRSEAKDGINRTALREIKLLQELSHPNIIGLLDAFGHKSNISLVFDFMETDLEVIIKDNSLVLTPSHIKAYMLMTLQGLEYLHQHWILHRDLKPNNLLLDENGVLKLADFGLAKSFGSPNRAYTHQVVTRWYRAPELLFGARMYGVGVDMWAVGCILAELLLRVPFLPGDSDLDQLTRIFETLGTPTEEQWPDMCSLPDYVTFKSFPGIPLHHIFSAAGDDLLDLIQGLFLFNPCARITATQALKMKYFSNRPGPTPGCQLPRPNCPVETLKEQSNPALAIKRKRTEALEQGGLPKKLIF", "T1 sequence (P51946 whole entry partner)": "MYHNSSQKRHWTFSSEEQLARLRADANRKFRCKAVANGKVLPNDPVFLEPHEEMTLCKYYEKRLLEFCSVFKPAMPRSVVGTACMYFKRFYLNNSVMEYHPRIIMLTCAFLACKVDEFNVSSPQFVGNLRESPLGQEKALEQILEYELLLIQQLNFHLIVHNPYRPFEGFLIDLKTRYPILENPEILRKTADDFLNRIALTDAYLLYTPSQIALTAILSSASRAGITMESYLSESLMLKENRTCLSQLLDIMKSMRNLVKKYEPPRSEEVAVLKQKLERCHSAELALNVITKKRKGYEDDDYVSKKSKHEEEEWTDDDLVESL", "T1 sequence (P51948 whole entry partner)": "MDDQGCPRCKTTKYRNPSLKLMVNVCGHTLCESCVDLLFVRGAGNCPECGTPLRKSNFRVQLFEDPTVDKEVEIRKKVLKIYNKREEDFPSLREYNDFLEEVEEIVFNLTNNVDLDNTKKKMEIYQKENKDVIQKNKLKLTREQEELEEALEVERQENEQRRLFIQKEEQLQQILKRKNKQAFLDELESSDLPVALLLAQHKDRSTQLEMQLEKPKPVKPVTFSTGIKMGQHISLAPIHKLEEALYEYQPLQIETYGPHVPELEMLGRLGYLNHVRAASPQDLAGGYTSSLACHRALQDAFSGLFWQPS", "test": "in vitro kinase assay CDK7/Cyclin H/MAT1 (ADP-Glo)", "type": "biochemical", "procedure": "The in vitro enzymatic assays were conducted at BPS Bioscience. CDK9/Cyclin T1, CDK2/Cyclin 2A, CDK4/Cyclin D3, and CDK6/Cyclin D3 enzymatic activities were tested with an ATP Kinase-Glo Plus Luminescence kinase assay kit (Promega, V6073, Madison, WI, USA), while the CDK7/Cyclin H/MAT1 activities were tested using ADP-Glo Kinase (Promega, V6930). These assays measure kinase activity by quantifying the amount of ATP or ADP remaining in solution following a kinase reaction. The luminescent signal from the assay is correlated to the amount of ATP or ADP present and is inversely correlated to the kinase activity. The compounds were diluted to 10% DMSO and were added to the reaction so that the final concentration of DMSO was 1% in all reactions. All enzymatic reactions were conducted at 30 °C for 60 min. […] After the enzymatic reaction, the luminescence signal was measured using a BioTek Synergy 2 microplate reader (Agilent, Santa Clara, CA, USA). Kinase activity assays were performed in duplicate at each concentration and the percent of kinase activity was calculated as a ratio of luminescence intensities in the absence or in presence of the compounds. […] IC50 values were determined by the concentration causing a half-maximal percent activity (BPS Bioscience, San Diego, CA, USA)."}, "[1]": {"test_system": "CMV promoter in YB5 cells", "test": "DNA methylation by bisulfite pyrosequencing, CMV promoter", "type": "cell-based, human", "conditions": "0.05–50 µM, 72 h", "description": "We analyzed DNA methylation levels on the CMV promoter region and LINE-1 repeated elements (as a marker of global DNA methylation level). After DNA extraction and bisulfite conversion, PCR amplification of regions of interest and pyrosequencing were achieved as previously described."}, "histone 3 and histone 4": {"test_system": "histone 3 and histone 4", "test": "histone acetylation by mass spectrometry", "type": "cell-based, human", "conditions": "eleven lysine residues, YB5 cells", "procedure": "As described previously, histone proteins were acid-extracted (0.2 N HCl) for 16 h. Histone acetylation levels were quantified on histone 3 and histone 4 by a Thermo TSQ Quantum Access triple quadrupole (QqQ) mass spectrometer (Thermofisher Scientific, Waltham, MA, USA)."}, "YB5 cells": {"test_system": "YB5 cells", "test": "GFP reactivation in YB5 cell-based system (flow cytometry)", "set-up": "species or system human", "procedure": "YB5 cells are derived from SW48 cells (human colon cancer cell line), and contain a single insertion of a DNA hypermethylated cytomegalovirus (CMV) promoter driving the green fluorescent protein (GFP) gene, as previously described. YB5 cells are cultured in L-15 medium supplemented with 10% fetal bovine serum and grown in log-phase in 1% CO2 atmosphere. YB5 cells were authenticated by DNA fingerprinting prior to drug screening and validation experiments. GFP expression in YB5 cells is silenced in >99.9% of the cells due to the CMV promoter DNA hypermethylation and repressive chromatin marks around the transcriptional start site. The human HCT116 colon cancer-derived GFP-reporter system, comprising a GFP gene under the control of an endogenously hypermethylated SFRP1 gene promoter, was kindly provided by Dr. Stephen Baylin (Johns Hopkins University). These cells are cultured in McCoy’s 5A medium supplemented with 10% fetal bovine serum and grown in log-phase in 5% CO2 atmosphere at 37 °C. The 451-Lu-BR melanoma cells were a kind gift from Dr. Raza Zaidi (Fels Institute for Cancer Research and Molecular Biology, Temple University School of Medicine, Philadelphia). These cells are derived from parental 451-LU cells that have acquired resistance to BRAF inhibitors. The 451-Lu-BR cells were cultured at 37 °C in Dulbecco’s Modified Eagle Medium (DMEM) supplemented with 10% fetal bovine serum, L-alanyl-L-glutamine (2 mM), and gentamycin (50 µg/mL) in 5% CO2 at 37 °C. The natural drug library (natural product set II) containing 120 compounds was obtained from the National Cancer Institute Developmental Therapeutics Program. Natural compounds were dissolved in DMSO (10 mM) in 96-well plates that were kept at −80°C until use. Toyocamycin, analogues of toyocamycin (sangivamycin, tubercidin, 3-deaza-adenosine, DZNep), CDK inhibitors, and epigenetic drugs (decitabine, SAHA, trichostatin A, depsipeptide) were purchased from Sigma-Aldrich (St. Louis, MO, USA,) for validation studies, dissolved in DMSO, and kept at −80 °C until use.\nYB5 cells were seeded at 30,000 cell/mL in 96-well plates (6000 cells/well) and treated 3 days after seeding. Cells were exposed to 120 natural compounds in 5 different experimental conditions: (1) 72 h exposure at 10 µM followed by 24 h recovery period prior to analysis; (2) 24 h treatment at 50 µM prior to analysis; (3) 72 h exposure at 10 µM of the compound library followed by 24 h treatment with HDAC inhibitor trichostatin A (200 nM) prior to analysis; (4) 72 h exposure at 10 µM in simultaneous combination with decitabine (50 nM) followed by 24 h recovery period prior to analysis; and (5) 72 h treatment with decitabine (50 nM) followed by 24 h exposure with the natural compound library (50 µM) prior to analysis. The scheme of different dose schedules is shown Figure S1A. During screening, drugs and cell culture media were replaced every day. To ensure the quality and the reproducibility of the screen, each 96-well plate was designed to include 80 natural compounds, 4 untreated wells, 4 wells treated with decitabine (50 nM, 72 h), 4 wells treated with trichostatin A (200 nM, 24 h), and their combination with decitabine (50 nM, 72 h) followed by trichostatin A treatment (200 nM, 24 h) prior to flow cytometry analysis. The percentage of GFP-expressing cells in control wells (untreated or treated with known epigenetic drugs) was measured and was reproducible between different plates.\nAfter treatment, YB5 cells were trypsinized for 15 min and resuspended in L-15 media containing propidium iodide (PI) to stain dead cells. GFP expression and PI staining were quantified by a BD LSR II flow cytometer (BD Biosciences, San Jose, CA, USA). A maximum of 10,000 cells was analyzed per well. Validations were performed using a Millipore Guava flow cytometer (EMD, Millipore, Burlington, MA, USA). […]"}, "[2]": {"test_system": "Rb phosphorylation level (T826)", "test": "Western blot, Rb and phospho-Rb T826", "type": "cell-based, human", "conditions": "HCT116, 50–500 nM, 6 h"}}, "data": [{"smiles": "N#Cc1cn([C@@H]2O[C@H](CO)[C@@H](O)[C@H]2O)c2ncnc(N)c12", "note": "[toyocamycin, 7-Deaza-7-cyanoadenosine]", "values": [{"measurement": "IC50", "setting": "CDK7/Cyclin H/MAT1", "result": 2.8, "unit": "µM"}, {"measurement": "times less enzymatic inhibition of CDK7 as compared to CDK9", "setting": "CDK7/Cyclin H/MAT1; CDK7/Cyclin H/MAT1 vs CDK9/CycT1", "result": 35, "unit": "times"}, {"measurement": "DNA methylation on CMV promoter", "setting": "[1]", "result": "no changes in DNA methylation"}, {"measurement": "histone 3 and 4 lysine acetylation levels", "setting": "histone 3 and histone 4", "result": "did not modify lysine acetylation levels"}, {"measurement": "GFP-expressing YB5 cells", "setting": "YB5 cells; 250 nM, 48 h", "result": "about 10%"}, {"measurement": "YB5 cells expressing GFP", "setting": "YB5 cells; 5 µM, 72 h", "result": "More than 60%"}, {"measurement": "GFP expression, % of YB5 cells", "setting": "YB5 cells; sequential combination with decitabine, toyocamycin 0.5–5 µM", "result": "up to 40%"}, {"measurement": "GFP-expressing cells with CDK9 overexpression (HA-CDK9, FLAG-CDK9)", "setting": "YB5 cells; toyocamycin 250 nM 48 h, MC180295 500 nM 48 h", "result": "reduction in the number of GFP-expressing cells"}, {"measurement": "Rb and its phosphorylated form (T826)", "setting": "[2]", "result": "did not change"}]}]}
